Measured values reported in patent US20240238327A1 (priority 2021, published 2024).

Assays:
[1] = tested on: Raw 264.7 cells; assay: plasma membrane cholesterol extraction from fixed cells; format: cell-based; settings: for plasma membrane cholesterol extraction: monomers, 20 mg/mL in PBS, 37° C., 1 hour, fixed cells
Protocol: Raw 264.7 cells were maintained in a Dulbecco's modified Eagle's medium (DMEM) containing 10% fetal bovine serum (FBS) and 1% penicillin/streptomycin. In order to suppress endocytosis of cyclodextrin and induce only plasma membrane cholesterol extraction, 1×10^5 cells were fixed at room temperature for 20 minutes using formaldehyde, and then cyclodextrin was dissolved in PBS in a concentration of 20 mg/mL and treated to the cells at 37° C. for 1 hour. The treated PBS was collected, centrifuged at a rate of 14,000 g for 30 minutes to remove cell debris and microvesicles, and then the cholesterol concentration in the supernatant was quantified using a Cholesterol Quantification Kit (Sigma Aldrich). The plasma membrane cholesterol extraction of gamma-cyclodextrins and polymers thereof was compared with alpha and beta-cyclodextrins and polymers thereof. […] The plasma membrane cholesterol extraction induced by gamma-cyclodextrins and polymers thereof was compared with alpha- and beta-cyclodextrins and polymers thereof, and the results are shown in FIG. 5.

[2] = tested on: Raw 264.7 cells; assay: cytotoxicity (CCK-8 cell viability); format: cell-based; settings: monomers, 20 mg/mL
Protocol: Raw 264.7 cells were maintained in a DMEM containing 10% FBS and 1% penicillin/streptomycin. 5×10^4 cells were dispensed in each well of a 96-well plate, and after 24 hours, the cells were treated with cyclodextrin at a concentration of 20 mg/mL. After culturing the cells at 37° C. in 5% CO2, a CCK-8 agent was added, 10 μL at a time.

[3] = tested on: whole blood from wild-type C57/BL6 mice; assay: hemolytic activity; format: cell-based; settings: monomers; 50 mg/ml in PBS, 37° C., 1 hour
Protocol: For hemolytic activity analysis, 30 μL of whole blood from wild-type C57/BL6 mice was mixed with 300 μL of a PBS solution containing 50 mg/ml of cyclodextrin and reacted at 37° C. for 1 hour. After centrifuging the mixture at 3,000 g for 5 minutes, the absorbance at 540 nm was measured using the supernatant.

[4] = cholesterol crystal dissolution; format: physicochemical; settings: monomers; 20 mg/mL, 37° C., 2 hours; NBD-cholesterol fluorescence
Protocol: First, in order to form cholesterol crystals, a solution including 2 mg/ml of cholesterol and 0.2 mg/ml of NBD-cholesterol in ethanol was prepared, and then distilled water (30% v/v) was added to the solution to induce crystallization. The solution was completely dried under vacuum, resuspended in PBS, and sonicated for 30 seconds. 20 μL of 5 mM cholesterol was mixed with 300 μL of 20 mg/mL cyclodextrin and reacted at 37° C. for 2 hours. After centrifuging the mixture at 14,000 g for 30 minutes to remove undissolved cholesterol crystals, the supernatant was collected and the fluorescence of dissolved NBD-cholesterol was measured at 480 nm/520 nm, and the cholesterol crystal dissolution levels depending on the molecular weights of hydroxypropyl-alpha-, -beta-, -gamma-cyclodextrin monomers and polymers were confirmed.

[5] = tested on: Raw 264.7 cells; assay: intracellular cholesterol excretion in macrophages that had taken up fluorescent cholesterol; format: cell-based; settings: 5 mg/mL, 48 hours; PBS control set to 100%
Protocol: Raw 264.7 cells were dispensed at 5×10^4 cells per well of a 96-well plate, and after 24 hours, the cells were treated with cholesterol crystals at a concentration of 50 μM. […] The cells were cultured at 37° C. in 5% CO2 for 48 hours, and intracellular cholesterol fluorescence was analyzed using a fluorescence microscope. In addition, to investigate the effect of cyclodextrin on intracellular cholesterol metabolism, the amount of ATP-binding cassette transporter (ABCA1) involved in cholesterol excretion was quantified using a cell flow rate analyzer, and cholesteryl ester, which is a storage form of cholesterol, was quantified.

[6] = tested on: outer hair cells in the cochlea; settings: 5 g/kg brain weight intraventricular; one week after injection
Protocol: (§1) To assess systemic toxicity, cyclodextrin dissolved in PBS was subcutaneously injected in an amount of 10 g/kg body weight to wild-type C57/BL6 mice. […] The body weight and behavioral characteristics of the mice were observed every day for a week. The behavioral characteristics of the mice were measured according to the criteria presented in Endpoints for Mouse Abdominal Tumor Models: Refinement of Current Criteria. In order to confirm toxicity to major organs, the mice were sacrificed 7 days later, and H&E staining was performed. In order to assess ototoxicity, the mice were sacrificed 7 days later, and the outer hair cells in the cochlea were quantified through microscopic observation. […] The brain weight of the mice was calculated to be about 0.4 g according to the age, and as a result, 2 mg of cyclodextrin was dissolved in 10 μL of PBS and injected. After 7 days, the outer hair cells in the cochlea were quantified through microscopic observation.
(§2) Also, the histological analysis of the major organs of the mice after one week is shown in FIG. 24, and ototoxicity of the C57BL/6 mice was evaluated one week after subcutaneously injecting 10 g/kg of cyclodextrin and intraventricularly injecting 5 g/kg brain weight of cyclodextrin. […]

[7] = systemic toxicity (body weight, behavioral score, organ histology); settings: 10 g/kg subcutaneous; one day after administration
Protocol: as §1, §2

| Compound | plasma membrane cholesterol extraction [1] [%] | cell viability [2] [%] | hemolytic activity [3] [%] | cholesterol crystal dissolution [4] [%] | amount of intracellular cholesterol [5] [%] | outer hair cell survival [6] [%] | level of plasma membrane cholesterol extraction (in words) ([1]; 20 mg/mL, compared with alpha- and beta-cyclodextrin monomers and polymers, or with the monomers) | lowest behavioral score, average [7] [points] |
| --- | --- | --- | --- | --- | --- | --- | --- | --- |
| CC(O)COC[C@H]1O[C@@H]2O[C@H]3[C@H](O)[C@@H](O)[C@@H](O[C@H]4[C@H](O)[C@@H](O)[C@@H](O[C@H]5[C@H](O)[C@@H](O)[C@@H](O[C@H]6[C@H](O)[C@@H](O)[C@@H](O[C@H]7[C@H](O)[C@@H](O)[C@@H](O[C@H]8[C@H](O)[C@@H](O)[C@@H](O[C@H]1[C@H](O)[C@H]2O)O[C@@H]8COCC(C)O)O[C@@H]7COCC(C)O)O[C@@H]6COCC(C)O)O[C@@H]5COCC(C)O)O[C@@H]4COCC(C)O)O[C@@H]3COCC(C)O (stereo partly drawn) [hydroxypropyl-beta-cyclodextrin] | 45 | 9.6 | 97.1 | 32.3 | 80.5 | 27.5 | – | – |
| hydroxypropyl-alpha-cyclodextrin | 42.8 | 14.2 | – | 21.9 | – | – | – | – |
| hydroxypropyl-gamma-cyclodextrin | 5 | 93.9 | – | 12.1 | 75 | 69.7 | significantly low levels of cholesterol extraction | – |
| cyclodextrin | – | – | – | – | – | – | – | 6 |
